Measured values reported in PMC6030093, “Discovery of peptide probes to modulate oxytocin-type receptors of insects” (Scientific Reports, 2018).
“Also recorded” adds a separate entry of the source. Positions of bridges follow the written chain, without caps; N, C: chain ends. No end group written: not given here.

How the values were obtained:
[1] = tested on: T. castaneum inotocin receptor; assay: Antagonism of inotocin-mediated IP1 accumulation, Schild analysis; type: cell-based, Tribolium castaneum; settings: HEK293, IP1
Description: The T. castaneum receptor gene was kindly provided by Yoonseong Park (Kansas State University)[8], whereas the L. niger inotocin receptor gene had been cloned and sequenced as per Di Giglio et al.[11]. Both receptor constructs were subsequently cloned into the pEGFP-N1 expression plasmid, generating C-terminal EGFP fusion receptor proteins. Receptors were expressed in HEK293 cells (ATCC, CRL 1573) via transfection using the Lipofectamine 2000® transfection reagent. The use of mammalian cell lines to study the receptors of insects and other invertebrate species, in the same vain as orphan receptors from mammalian genomes, is considered a standard procedure. Various studies have utilized this approach[8],[9],[11]. Whilst such mammalian cell lines may not completely mimic insect cell biology, GPCRs and their signalling is highly homologous across the animal kingdom; it would be unlikely that the insect receptors would mis-fold in a mammalian cell line. Nevertheless, during assay optimization we routinely monitored surface expression of GFP-tagged receptors, and we only proceeded to pharmacological assays, if the receptor localized at the cell membrane. Moreover, most biochemical cell-based functional assays are optimized for mammalian cells. Whilst it is possible that insect cells could be utilized for these assays, it is unknown whether they endogenously express inotocin receptors. […] Accordingly, mammalian cells were cultured in DMEM supplemented with 10% FBS and penicillin/streptomycin (100 U mL^−1) and plated in 6-well plates prior to transfection. When cells had reached confluency, cells were transfected as per the manufacturer’s protocol with 2.5 µg per well of each respective receptor construct using a DNA:Lipofectamine 2000® ratio of 1:3 prepared in serum-free DMEM. […] Verification of receptor expression was assessed via microscopic examination of membrane localised GFP fluorescence.
Quantitative measurements of receptor-mediated inositol 1-phosphate (IP1) were performed by competitive immunoassay utilising the IP-One assay kit (CisBio, France). […] The stimulation was terminated by lysis and the simultaneous addition of homogenous time-resolved fluorescence resonance energy transfer reagents. […] Fluorescence emission measurements at 620 nm and 665 nm were performed using a FlexStation3 plate reader (Molecular Devices, Sunnyvale, CA) or Spark Multimode plate reader (Tecan, Männedorf, Switzerland) at an excitation wavelength of 340 nm. Results were analysed as a ratio of fluorescence intensities of 665 nm to 620 nm.
(§1) Data from cellular assays were analysed using GraphPad Prism 7.03 (GraphPad Software, San Diego). […]

[2] = tested on: L. niger inotocin receptor; assay: IP1 accumulation, agonist mode (L. niger inotocin receptor); type: cell-based, Lasius niger; settings: for Emax / LogEC50: HEK293 cells expressing L. niger receptor (C-terminal EGFP fusion), IP-One HTRF assay, mean ± S.E.M. from at least three independent experiments in triplicate; for Emax: 1 h at 37 °C; for LogEC50: pH 7.4, 1 h at 37 °C
Description: (§2) The T. castaneum receptor gene was kindly provided by Yoonseong Park (Kansas State University)[8], whereas the L. niger inotocin receptor gene had been cloned and sequenced as per Di Giglio et al.[11]. Both receptor constructs were subsequently cloned into the pEGFP-N1 expression plasmid, generating C-terminal EGFP fusion receptor proteins. Receptors were expressed in HEK293 cells (ATCC, CRL 1573) via transfection using the Lipofectamine 2000® transfection reagent. The use of mammalian cell lines to study the receptors of insects and other invertebrate species, in the same vain as orphan receptors from mammalian genomes, is considered a standard procedure. Various studies have utilized this approach[8],[9],[11]. Whilst such mammalian cell lines may not completely mimic insect cell biology, GPCRs and their signalling is highly homologous across the animal kingdom; it would be unlikely that the insect receptors would mis-fold in a mammalian cell line. Nevertheless, during assay optimization we routinely monitored surface expression of GFP-tagged receptors, and we only proceeded to pharmacological assays, if the receptor localized at the cell membrane. Moreover, most biochemical cell-based functional assays are optimized for mammalian cells. Whilst it is possible that insect cells could be utilized for these assays, it is unknown whether they endogenously express inotocin receptors. […] Accordingly, mammalian cells were cultured in DMEM supplemented with 10% FBS and penicillin/streptomycin (100 U mL^−1) and plated in 6-well plates prior to transfection. When cells had reached confluency, cells were transfected as per the manufacturer’s protocol with 2.5 µg per well of each respective receptor construct using a DNA:Lipofectamine 2000® ratio of 1:3 prepared in serum-free DMEM. After 4–6 h, cells were dissociated by trituration and replated into white opaque 384-well plates (CellStar®, Greiner, Kremsmünster, Austria) at approximately 10,000 cells per well. Cells were cultured for approximately 38–48 h in a humidified incubator at 37 °C and an atmosphere of 5% CO2, and then assayed for second messenger production. Verification of receptor expression was assessed via microscopic examination of membrane localised GFP fluorescence.
(§3) Quantitative measurements of receptor-mediated inositol 1-phosphate (IP1) were performed by competitive immunoassay utilising the IP-One assay kit (CisBio, France). HEK293 cells were prepared as described above and then assayed as per the manufacturer’s protocol. Briefly, at the time of assay, the culture media was removed from cells, and then replaced with IP-One stimulation buffer (HEPES 10 mM, CaCl2 1 mM, MgCl2 0.5 mM, KCl 4.2 mM, NaCl 146 mM, glucose 5.5 mM, LiCl 50 mM, pH 7.4). Cells were allowed to equilibrate in the stimulation buffer at 37 °C for 15 min, followed by addition of peptide ligands (to final concentrations of 0.1 pM – 10 µM) for subsequent stimulation for 1 h at 37 °C. The stimulation was terminated by lysis and the simultaneous addition of homogenous time-resolved fluorescence resonance energy transfer reagents. The lysates were incubated for a minimum of 1 h at room temperature. Fluorescence emission measurements at 620 nm and 665 nm were performed using a FlexStation3 plate reader (Molecular Devices, Sunnyvale, CA) or Spark Multimode plate reader (Tecan, Männedorf, Switzerland) at an excitation wavelength of 340 nm. Results were analysed as a ratio of fluorescence intensities of 665 nm to 620 nm.
Data from cellular assays were analysed using GraphPad Prism 7.03 (GraphPad Software, San Diego). Concentration-response data were fitted to three- or four-parameter logistic equations to derive estimates of potency (LogEC50) and efficacy (Emax), relative to the maximal inotocin control response. Data from agonist-antagonist interaction experiments were fit to a Schild regression analysis.

[3] = tested on: T. castaneum inotocin receptor; assay: IP1 accumulation, agonist mode (T. castaneum inotocin receptor); type: cell-based, Tribolium castaneum
Description: as §2
as §3, with “Cells were allowed to equilibrate in the stimulation buffer at 37 °C for 15 min, followed by addition of peptide ligands (to final concentrations of 0.1 pM – 10 µM) for subsequent stimulation for 1 h at 37 °C.” left out, “The lysates were incubated for a minimum of 1 h at room temperature.” left out
as §1

[4] = tested on: human vasopressin V1a receptor; settings: cited from earlier work
Description: (§4) Compared to the level of identity between the T. castaneum inotocin receptor and its human counterparts (approximately 37–40% similarity ...

human oxytocin receptor = settings: cited from earlier work
Description: as §4

[5] = tested on: T. castaneum inotocin receptor; settings: initial characterisation of the T. castaneum receptor; cited from earlier work
Description: In parallel to characterising the inotocin receptor activity of kalata B7, we sought to identify an antagonist peptide. Our recent study with the L. niger inotocin peptide-receptor system[11] further emphasised the structural homology shared between inotocin receptors and human oxytocin/vasopressin receptors (Fig. 2, Table 1). […] Given this homology, we were interested in the ability of the oxytocin/V1a receptor anta ...

[6] = target: Tribolium castaneum inotocin receptor (Tribolium castaneum)
[7] = target: Lasius niger inotocin receptor (Lasius niger)
[8] = L. niger receptor, IP1 accumulation, HEK293
[9] = T. castaneum receptor, IP1 accumulation, HEK293

Molecule: atosiban
- antagonism of inotocin (in words) ([1]; dextral displacement of the inotocin concentration-response curve): competitively inhibits the T. castaneum inotocin receptor; also recorded: selectively antagonises the T. castaneum receptor
- estimated functional affinity ([1]; from Schild analysis (pA2), competitive antagonism of inotocin): approximately 93 nM
- pA2 ([1]; inotocin 1 pM – 10 µM in absence or presence of 100 nM, 1 µM, 3 µM, 10 µM atosiban, Schild analysis, mean ± S.E.M. of three independent experiments in triplicate): 7.03 ± 0.086
- Schild Slope ([1]; inotocin 1 pM – 10 µM in absence or presence of 100 nM, 1 µM, 3 µM, 10 µM atosiban, mean ± S.E.M. of three independent experiments in triplicate): 1.00 ± 0.085
- Emax [2]: 89.9 ± 4.5 % inotocin max. response
- LogEC50 [2]: −5.81 ± 0.12 Log[M]
- agonist activity (in words) [2, 8]: partial agonist
- agonist activity (in words) [3, 9]: lacked agonist activity

Molecule: kalata B7: plant-derived cyclic peptide (cyclotide) from Oldenlandia affinis, synthesised by Fmoc-SPPS and native chemical ligation (cyclo(GLPVCGETCTLGTCYTQGCTCSWPICKRN); also: oxidized form, disulfides not placed)
- effects on cell viability (HEK293 cells): did not observe negative effects on cell viability
- Emax [2]: 86.5 ± 4.7 % inotocin max. response
- LogEC50 [2]: −5.66 ± 0.10 Log[M]
- agonist activity (in words) [2, 8]: weak partial agonist
- EC50 ([2]; L. niger receptor, IP1 accumulation, HEK293, read-out: potency): 2200 nM
- Emax ([3]; HEK293 cells expressing T. castaneum receptor (C-terminal EGFP fusion), IP-One HTRF assay, 1 h at 37 °C, mean ± S.E.M. from at least three independent experiments in triplicate): 60.3 ± 9.6 % inotocin max. response
- LogEC50 ([3]; HEK293 cells expressing T. castaneum receptor (C-terminal EGFP fusion), IP-One HTRF assay, pH 7.4, 1 h at 37 °C, mean ± S.E.M. from at least three independent experiments in triplicate): −5.14 ± 0.22 Log[M]
- agonist activity (in words) [3, 9]: weak partial agonist
- EC50 ([3]; T. castaneum receptor, IP1 accumulation, HEK293, read-out: potency): 7.2 µM
- activity at human vasopressin V1a receptor (in words) [4]: partial agonist
- activity at human oxytocin receptor (in words) (human oxytocin receptor): partial agonist

Molecule: oxytocin: reported agonist of the T. castaneum receptor
- agonist activity at T. castaneum receptor (in words) [5]: agonist

B1: kalata B7 (peptide)
peptide: cyclo(GLPVCGETCTLGTCYTQGCTCSWPICKRN)
modifications: disulfide (positions not given here); also: oxidized, disulfide pairing not given here
- Emax of receptor-mediated IP1 accumulation in HEK293 cells expressing the T. castaneum inotocin receptor (% inotocin max. response) [6]: 60.3
- LogEC50 of receptor-mediated IP1 accumulation in HEK293 cells expressing the T. castaneum inotocin receptor [6]: -5.14 Log[M]
- Emax of receptor-mediated IP1 accumulation in HEK293 cells expressing the L. niger inotocin receptor (% inotocin max. response) [7]: 86.5
- LogEC50 of receptor-mediated IP1 accumulation in HEK293 cells expressing the L. niger inotocin receptor [7]: -5.66 Log[M]

Molecule: CLITNCPRG-NH2 (disulfide 1-6 (inferred)) [inotocin]
- Emax of receptor-mediated IP1 accumulation in HEK293 cells expressing the T. castaneum inotocin receptor (the reference response) [6]: 100%
- LogEC50 of receptor-mediated IP1 accumulation in HEK293 cells expressing the T. castaneum inotocin receptor [6]: -9.63 Log[M]
- Emax of receptor-mediated IP1 accumulation in HEK293 cells expressing the L. niger inotocin receptor (the reference response) (% inotocin max. response) [7]: 100
- LogEC50 of receptor-mediated IP1 accumulation in HEK293 cells expressing the L. niger inotocin receptor [7]: -10.2 Log[M]
